Literature values as cited in article PMC7220402 (Medicine, 2020).

- Variation in dose-normalized MPA exposure: 10 fold
SMILES: COc1c(C)c2c(c(O)c1C/C=C(\C)CCC(=O)O)C(=O)OC2 [MPA, mycophenolic acid]
